Laboratory results reported in patent US4605658A (priority 1983, dated 1986).
≈ marks a conversion by molar mass, not a printed value. Like-named read-outs stand apart in the source and are kept apart here.

What was measured:
Reovirus 1 = assay: Test 1: inhibition of virus cytopathic effect, reovirus 1 in Vero B cells; type: cell-based; conditions: Mammalian orthoreovirus 1; Reovirus 1, Vero B cells; Table 2; read-out: MIC50
Measles = assay: microbe, parasite or virus in culture; type: cell-based; conditions: Measles morbillivirus, Vero; read-out: MIC50
Vaccinia = assay: microbe, parasite or virus in culture; type: cell-based; conditions: Orthopoxvirus vaccinia, PRK, read-out: MIC50
Parainfluenza = assay: microbe, parasite or virus in culture; type: cell-based; conditions: Vero B; read-out: MIC50
Polio 1 = assay: microbe, parasite or virus in culture; type: cell-based; conditions: HeLa, read-out: MIC50
Herpes simplex 1 (KOS) = assay: Test 1: inhibition of virus cytopathic effect, herpes simplex 1 (KOS) in PRK cells; type: cell-based; conditions: Table 2, read-out: MIC50
Vesicular stomatitis = assay: microbe, parasite or virus in culture; type: cell-based; conditions: PRK, read-out: MIC50
Sindbis = assay: Test 1: inhibition of virus cytopathic effect, Sindbis in Vero B cells; type: cell-based; conditions: Table 2, read-out: MIC50
Experimental: The antiviral properties of the esters prepared in Example 1 was explored in a variety of cell cultures and with a variety of DNA and RNA viruses such as listed in Table 2. The cells of each cell culture were inoculated with a certain virus in a dose of about 100 CCID50, that is about 100 times the dose needed to infect 50 percent of the cells. One hour after inoculation, the celss were washed with Eagle's nutrient medium and an ester of Example 1 was added in a dose varying from zero to 300 ug/ml and sometimes to more than 400 ug/ml. The compound (S)-DHPA was used in a comparative experiment. […] The cytopathic effect itself was measured in control experiments with virus-infected cell cultures without any added chemical compound and recorded as soon as it reached completion (Method of L. J. Rosenthal and I. L. Schechmaister in "Tissue Culture", p. 510, Academic Press, New York, 1973).
The results are shown in Table 2, wherein the abbreviations have the following meaning: PRK: primary culture of rabbit kidney cells; Vero: continuous line of green monkey kidney cells, HeLa: epithelial line of human cervical carcinoma cells.

Measles virus = assay: microbe, parasite or virus in culture; type: cell-based; conditions: Measles morbillivirus, Vero
Sindbis virus = assay: microbe, parasite or virus in culture; type: cell-based; conditions: Vero
[1] = Test 3: cytotoxicity, Vero cells; type: cell-based, green monkey; conditions: monkey, Table 4, read-out: Minimum cytotoxic concentration (MCC)
Experimental: (§1) A further test was effected to determine the cytotoxicity of the chemical compounds of Table 1. Cell cultures were incubated with varying concentrations of the esters, during a time period equal to the period required for measuring antiviral activity. The compounds (S)-DHPA and (RS)-DHPA were used for comparative purposes. For each compound, the minimum cytotoxic concentration (MCC) was measured, that is the concentration required to cause a microscopically detectable alteration of normal cell morphology, when incubated with the cells in this way.

Parainfluenza-virus-3 = assay: microbe, parasite or virus in culture; type: cell-based; conditions: Vero
Reo virus-1 = assay: Test 2: antiviral activity, reo virus-1 in Vero cells; type: cell-based; conditions: Reo virus-1, Vero cells; Table 3
[2] = Test 3: cytotoxicity, PRK cells; type: cell-based; conditions: rabbit, Table 4, read-out: Minimum cytotoxic concentration (MCC)
Experimental: as §1

[3] = Test 3: cytotoxicity, HeLa cells; type: cell-based; conditions: human, Table 4, read-out: Minimum cytotoxic concentration (MCC)
Experimental: as §1

[4] = test system: Vesicular stomatitis virus; type: cell-based; conditions: ratio of MCC (PRK cells) to MIC50 (vesicular stomatitis virus)
Coxsackie virus-B4 = assay: Test 2: antiviral activity, Coxsackie virus-B4 in HeLa cells; type: cell-based; conditions: Table 3
DNA and RNA viruses = conditions: known DHPA and related derivatives; cited from earlier work

Compound	EC50 (Reovirus 1) [µg/mL]	EC50 (Measles) [µg/mL]	EC50 (Vaccinia) [µg/mL]	EC50 (Parainfluenza) [µg/mL]	EC50 (Polio 1) [µg/mL]	EC50 (Herpes simplex 1 (KOS)) [µg/mL]	EC50 (Vesicular stomatitis) [µg/mL]	EC50 (Sindbis) [µg/mL]	EC50 (Measles virus) [µg/mL]	EC50 (Sindbis virus) [µg/mL]	MCC [1] [µg/mL]	EC50 (Parainfluenza-virus-3) [µg/mL]	EC50 (Reo virus-1) [µg/mL]	MCC [2] [µg/mL]	MCC [3] [µg/mL]	antiviral index [4]	antiviral index ([4]; listed as 2-butyl)	EC50 (Coxsackie virus-B4) [µg/mL]	antiviral index ([4]; listed as 2-methylpropyl)	antiviral activity (in words) (DNA and RNA viruses)
COC(=O)[C@H](O)Cn1cnc2c(N)ncnc21 [CH3 (R), methylester of 3-(adenin-9-yl)-2-hydroxypropanoic acid]	70 (≈ 295 µM)	15 (≈ 63.2 µM)	15 (≈ 63.2 µM)	200 (≈ 843 µM)	> 400	> 400	1.5 (≈ 6.32 µM)	> 400	–	–	–	–	–	–	–	–	–	–	–	–
CCOC(=O)[C@@H](O)Cn1cnc2c(N)ncnc21 [C2 H5 (S)]	70 (≈ 279 µM)	100 (≈ 398 µM)	7 (≈ 27.9 µM)	100 (≈ 398 µM)	> 400	> 400	1.5 (≈ 5.97 µM)	> 400	–	–	–	–	–	–	–	–	–	–	–	–
CCC(C)OC(=O)C(O)Cn1cnc2c(N)ncnc21 (racemic) [Compound 6]	–	–	–	–	–	–	–	–	40 (≈ 143 µM)	300 (≈ 1070 µM)	> 400	200 (≈ 716 µM)	70 (≈ 251 µM)	> 400	> 400	higher than 100 -fold	higher than 400 -fold	> 400	–	–
COCCOC(=O)C(O)Cn1cnc2c(N)ncnc21 (racemic) [Compound 10]	–	–	–	–	–	–	–	–	400 (≈ 1420 µM)	> 400	> 400	300 (≈ 1070 µM)	70 (≈ 249 µM)	> 400	> 400	–	–	> 400	–	–
COC(=O)[C@@H](O)Cn1cnc2c(N)ncnc21 [CH3 (S), methylester of 3-(adenin-9-yl)-2-hydroxypropanoic acid]	300 (≈ 1260 µM)	70 (≈ 295 µM)	20 (≈ 84.3 µM)	100 (≈ 422 µM)	> 400	> 400	7 (≈ 29.5 µM)	> 400	–	–	–	–	–	–	–	–	–	–	–	–
CC(C)COC(=O)C(O)Cn1cnc2c(N)ncnc21 (racemic) [Compound 7]	–	–	–	–	–	–	–	–	40 (≈ 143 µM)	> 400	> 400	20 (≈ 71.6 µM)	150 (≈ 537 µM)	> 400	> 400	higher than 100 -fold	–	> 400	higher than 400 -fold	–
CC(C)CCOC(=O)C(O)Cn1cnc2c(N)ncnc21 (racemic) [Compound 8]	–	–	–	–	–	–	–	–	12 (≈ 40.9 µM)	200 (≈ 682 µM)	400	200 (≈ 682 µM)	30 (≈ 102 µM)	400	400	higher than 100 -fold	–	> 400	–	–
CCCCCCCCOC(=O)C(O)Cn1cnc2c(N)ncnc21 (racemic) [Compound 9]	–	–	–	–	–	–	–	–	70 (≈ 209 µM)	30 (≈ 89.4 µM)	200	15 (≈ 44.7 µM)	7 (≈ 20.9 µM)	100	100	–	–	> 100	–	–
Nc1ncnc2c1ncn2C[C@H](O)CO [(S)--DHPA, 9-(2,3-dihydroxypropyl)adenine, reference compound]	70 (≈ 335 µM)	70 (≈ 335 µM)	70 (≈ 335 µM)	–	> 400	> 400	30 (≈ 143 µM)	> 400	30 (≈ 143 µM)	> 400	> 400	20 (≈ 95.6 µM)	200 (≈ 956 µM)	> 400	> 400	–	–	> 400	–	antivirally active
